Experiment [1] has as its target T1, pseudo-kinase domain (JH2, amino-acids 536-812) of human Wild Type JAK2 (Homo sapiens, UniProt O60674, F794H/W659A/W777A).
T1 construct: pseudo-kinase domain (JH2, amino-acids 536-812 with 3 surface mutations W659A, W777A, F794H); purchased BPS Bioscience 79463; host or cells: baculovirus expression system
The experiment can be described thus: JAK2 LanthaScreen JH2-WT Binding Assay. To be noted: 1 hour at 25° C. The essentials: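 Compounds, serially diluted, were mixed with 0.145 nM JH2 domain, 50 nM tracer and 0.25 nM streptavidin-Tb cryptate, then incubated 1 hour at 25° C before LanthaScreen reading. Wells containing 2 mM ATP defined non-specific binding. Four-parameter dose-response curves gave IC50.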

Experiment [2] addresses T2, pseudo-kinase domain (JH2, amino-acids 536-812) of human V617F mutant JAK2 (Homo sapiens, UniProt O60674, F794H/V617F/W659A/W777A).
T2 construct: pseudo-kinase domain (JH2, amino-acids 536-812 with 3 surface mutations W659A, W777A, F794H); purchased BPS Bioscience 79498; host or cells: baculovirus expression system
Description: JAK2 LanthaScreen JH2-V617F Binding Assay. To be noted: 1 hour at 25° C. In a few lines: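 IC50 values came from four-parameter dose-response fits of LanthaScreen signal, read after compounds sat 1 hour at 25° C with 0.26 nM baculovirus-expressed biotinylated protein, 50 nM fluorescent tracer and 0.25 nM streptavidin-Tb cryptate. Non-specific binding was set with 2 mM ATP.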

In experiment [3] the target is T3, catalytic domain (JH1, amino acids 808-1132) of human JAK2 (Homo sapiens, UniProt O60674).
T3 construct: catalytic domain (JH1, amino acids 808-1132) of human JAK2; His (N); purchased BPS Bioscience 40450; host or cells: baculovirus expression system
T3 sequence (O60674 808-1132): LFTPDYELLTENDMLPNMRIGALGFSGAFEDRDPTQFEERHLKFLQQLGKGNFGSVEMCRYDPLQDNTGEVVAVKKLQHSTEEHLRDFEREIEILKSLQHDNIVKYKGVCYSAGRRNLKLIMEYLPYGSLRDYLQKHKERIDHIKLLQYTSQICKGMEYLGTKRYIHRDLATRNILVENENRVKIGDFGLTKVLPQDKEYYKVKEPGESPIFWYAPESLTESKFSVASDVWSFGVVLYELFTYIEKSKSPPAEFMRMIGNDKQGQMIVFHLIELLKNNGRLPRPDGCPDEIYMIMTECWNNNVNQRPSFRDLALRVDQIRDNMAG
The experiment can be described thus: JAK2 HTRF Enzyme Activity Assay. The note with it: ATP 30 μM, read-out: ENZ 30UMATP. The experiment is classed as biochemical. The essentials:
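His-tagged JAK2 JH1 from baculovirus, 0.015 nM, incubated with compound, ATP at 30 μM or 1 mM and 500 nM biotinylated peptide, pH 7.5, 60 min at 25° C. HTRF read-out via Eu-anti-phosphotyrosine and streptavidin-APC after EDTA stop; IC50 from four-parameter dose-response fit.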

Experiment [4] concerns the target T4, catalytic domain (JH1, amino acids 826-1132) of human JAK2 (Homo sapiens, UniProt O60674).
T4 construct: catalytic domain (JH1, amino acids 826-1132) of human JAK2; purchased Carna Biosciences 08-445-20N; host or cells: baculovirus expression system
The experiment can be described thus: JAK2 LanthaScreen JH1 Binding Assay. To be noted: 2 hours at 25° C. In a few lines: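 FLAG-tagged biotinylated JAK2 JH1 (1.5 nM) incubated with compounds, 50 nM fluorescent tracer and 0.5 nM streptavidin-Tb in Tris pH 7.5 buffer with MgCl2, BSA, DTT, 2 h at 25 °C.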

Counter-ions that a name gives are not always drawn. A value given as a limit tells only on which side of the number the result lay.

T2 sequence (O60674 536-812 V617F/W659A/W777A/F794H): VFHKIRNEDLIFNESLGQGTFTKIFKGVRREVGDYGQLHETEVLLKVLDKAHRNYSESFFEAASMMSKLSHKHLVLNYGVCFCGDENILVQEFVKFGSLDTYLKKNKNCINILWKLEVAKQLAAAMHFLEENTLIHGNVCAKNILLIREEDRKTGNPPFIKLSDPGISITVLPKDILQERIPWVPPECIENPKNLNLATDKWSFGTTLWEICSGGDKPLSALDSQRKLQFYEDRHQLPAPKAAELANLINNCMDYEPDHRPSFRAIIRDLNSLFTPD
T4 sequence (O60674 826-1132): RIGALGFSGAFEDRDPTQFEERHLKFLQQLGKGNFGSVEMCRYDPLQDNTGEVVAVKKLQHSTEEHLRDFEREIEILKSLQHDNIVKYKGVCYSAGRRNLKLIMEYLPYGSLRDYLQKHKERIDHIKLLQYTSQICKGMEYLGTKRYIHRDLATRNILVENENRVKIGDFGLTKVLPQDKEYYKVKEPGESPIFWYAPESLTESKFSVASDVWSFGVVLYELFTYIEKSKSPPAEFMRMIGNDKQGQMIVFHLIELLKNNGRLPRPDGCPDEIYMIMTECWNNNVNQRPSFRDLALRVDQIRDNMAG
T1 sequence (O60674 536-812 W659A/W777A/F794H): as the sequence (O60674 536-812 V617F/W659A/W777A/F794H) above, with F82V counted along it

As for `CCNC(=O)NC1CC(CC#N)(N2CCC3(CC2)C(=O)N(C)c2cnc4[nH]c(-c5cnn(C)c5)c(-c5ccccc5)c4c23)C1` (stereo not shown) [Example 28, 1-(3-(Cyanomethyl)-3-(6-methyl-2-(1-methyl-1H-pyrazol-4-yl)-7-oxo-1-phenyl-6,7-dihydro-3H-spiro[dipyrrolo[2,3-b:3′,2′-d]pyridine-8,4′-piperidin]-1′-yl)cyclobutyl)-3-ethylurea, trifluoroacetate salt], the IC50 was not above 100 nM in experiment [1], not above 100 nM in experiment [2], 100 to 500 nM in experiment [3] and 100 to 500 nM in experiment [4].

`CN1C(=O)C2(CCN(C3(CC#N)CC(NS(=O)(=O)c4ccccc4)C3)CC2)c2c1cnc1[nH]c(-c3cnn(C)c3)c(-c3ccccc3)c21` (stereo not shown) [Example 29, N-(3-(Cyanomethyl)-3-(6-methyl-2-(1-methyl-1H-pyrazol-4-yl)-7-oxo-1-phenyl-6,7-dihydro-3H-spiro[dipyrrolo[2,3-b:3′,2′-d]pyridine-8,4′-piperidin]-1-yl)cyclobutyl)benzenesulfonamide, trifluoroacctate salt]: the IC50 in experiment [1] was not above 100 nM; in experiment [2] it was not above 100 nM; in experiment [3] it was 500 to 1250 nM; in experiment [4] it was 500 to 1250 nM.

Take `CN1C(=O)C2(CCN(C3(CC#N)CCC3)CC2)c2c1cnc1[nH]c(-c3cnn(CC(F)F)c3)c(-c3ccc4c(cnn4C)c3)c21` [Example 30, 2-(1-(2-(1-(2,2-Difluoroethyl)-1H-pyrazol-4-yl)-6-methyl-1-(1-methyl-1H-indazol-5-yl)-7-oxo-6,7-dihydro-3H-spiro[dipyrrolo[2,3-b:3′,2′-d]pyridine-8,4′-piperidin]-1′-yl)cyclobutyl)acetonitrile, trifluoroacetate salt]: the IC50 in experiment [1] is not above 100 nM; in experiment [2], not above 100 nM; in experiment [3], 100 to 500 nM; in experiment [4], 100 to 500 nM.

As to `CN1C(=O)C2(CCN(C3(CC#N)CCC3)CC2)c2c1cnc1[nH]c(-c3cnn(C)c3)c(-c3ccc4c(cnn4C)c3)c21` [Example 31, 2-(1-(6-Methyl-1-(1-methyl-1H-indazol-5-yl)-2-(1-methyl-1H-pyrazol-4-yl)-7-oxo-6,7-dihydro-3H-spiro[dipyrrolo[2,3-b:3′,2′-d]pyridine-8,4′-piperidin]-1′-yl)cyclobutyl)acetonitrile, trifluoroacetate salt], the IC50 was not above 100 nM in experiment [1], not above 100 nM in experiment [2], 100 to 500 nM in experiment [3] and 100 to 500 nM in experiment [4].

Regarding `CN1C(=O)C2(CCN(C3(CC#N)CCC3)CC2)c2c1cnc1[nH]c(-c3cnn(CC(C)(C)O)c3)c(-c3ccc4c(cnn4C)c3)c21` [Example 32, 2-(1-(2-(1-(2-Hydroxy-2-methylpropyl)-1H-pyrazol-4-yl)-6-methyl-1-(1-methyl-1H-indazol-5-yl)-7-oxo-6,7-dihydro-3H-spiro[dipyrrolo[2,3-b:3′,2′-d]pyridine-8,4′-piperidin]-1′-yl)cyclobutyl)acetonitrile, trifluoroacetate salt], the IC50 in experiment [1] was not above 100 nM; in experiment [2], not above 100 nM; in experiment [3], 100 to 500 nM; in experiment [4], 100 to 500 nM.

For the compound `CN1C(=O)C2(CCN(C3(CC#N)CCC3)CC2)c2c1cnc1[nH]c(-c3cnn(CC(F)(F)F)c3)c(-c3ccc4c(cnn4C)c3)c21` [Example 33, 2-(1-(6-Methyl-1-(1-methyl-1H-indazol-5-yl)-7-oxo-2-(1-(2,2,2-trifluoroethyl)-1H-pyrazol-4-yl)-6,7-dihydro-3H-spiro[dipyrrolo[2,3-b:3′,2′-d]pyridine-8,4′-piperidin]-1′-yl)cyclobutyl)acetonitrile, trifluoroacetate salt], the IC50 is not above 100 nM in experiment [1], not above 100 nM in experiment [2], 500 to 1250 nM in experiment [3] and 500 to 1250 nM in experiment [4].

On to `CCS(=O)(=O)c1ccc(-c2[nH]c3ncc4c(c3c2-c2ccc3c(cnn3C)c2)C2(CCN(C3(CC#N)CCC3)CC2)C(=O)N4C)cc1` [Example 35, 2-(1-(2-(4-(Ethylsulfonyl)phenyl)-6-methyl-1-(1-methyl-1H-indazol-5-yl)-7-oxo-6,7-dihydro-3H-spiro[dipyrrolo[2,3-b:3′,2′-d]pyridine-8,4′-piperidin]-1′-yl)cyclobutyl)acetonitrile, trifluoroacetate salt], for which the IC50 is not above 100 nM in experiment [1], not above 100 nM in experiment [2], 500 to 1250 nM in experiment [3] and 500 to 1250 nM in experiment [4].

For `COCCn1cc(-c2[nH]c3ncc4c(c3c2-c2ccc3c(cnn3C)c2)C2(CCN(C3(CC#N)CCC3)CC2)C(=O)N4C)cn1` [Example 36, 2-(1-(2-(1-(2-Methoxyethyl)-1H-pyrazol-4-yl)-6-methyl-1-(1-methyl-1H-indazol-5-yl)-7-oxo-6,7-dihydro-3H-spiro[dipyrrolo[2,3-b:3′,2′-d]pyridine-8,4′-piperidin]-1′-yl)cyclobutyl)acetonitrile, trifluoroacetate salt], the IC50 in experiment [1] was not above 100 nM; in experiment [2], not above 100 nM; in experiment [3], 100 to 500 nM; in experiment [4], 100 to 500 nM.

On to `CN1C(=O)C2(CCN(C3(CC#N)CCC3)CC2)c2c1cnc1[nH]c(-c3cnn(C(C)(C)CO)c3)c(-c3ccc4c(cnn4C)c3)c21` [Example 37, 2-(1-(2-(1-(1-Hydroxy-2-methylpropan-2-yl)-1H-pyrazol-4-yl)-6-methyl-1-(1-methyl-1H-indazol-5-yl)-7-oxo-6,7-dihydro-3H-spiro[dipyrrolo[2,3-b:3′,2′-d]pyridine-8,4′-piperidin]-1′-yl)cyclobutyl)acetonitrile, trifluoroacetate salt], for which the IC50 was not above 100 nM in experiment [1], not above 100 nM in experiment [2], 100 to 500 nM in experiment [3] and 100 to 500 nM in experiment [4].

As to `CN1C(=O)C2(CCN(C3(CC#N)CCC3)CC2)c2c1cnc1[nH]c(-c3cnn(CCN4CCOCC4)c3)c(-c3ccc4c(cnn4C)c3)c21` [Example 38, 2-(1-(6-Methyl-1-(1-methyl-1H-indazol-5-yl)-2-(1-(2-morpholinoethyl)-1H-pyrazol-4-yl)-7-oxo-6,7-dihydro-3H-spiro[dipyrrolo[2,3-b:3′,2′-d]pyridine-8,4′-piperidin]-1′-yl)cyclobutyl)acetonitrile, trifluoroacetate salt], the IC50 is not above 100 nM in experiment [1], not above 100 nM in experiment [2], not above 100 nM in experiment [3] and 100 to 500 nM in experiment [4].

As to `CN1C(=O)C2(CCN(C3(CC#N)CCC3)CC2)c2c1cnc1[nH]c(-c3cnn(CC4CC4)c3)c(-c3ccc4c(cnn4C)c3)c21` [Example 39, 2-(1-(2-(1-(Cyclopropylmethyl)-1H-pyrazol-4-yl)-6-methyl-1-(1-methyl-1H-indazol-5-yl)-7-oxo-6,7-dihydro-3H-spiro[dipyrrolo[2,3-b:3′,2′-d]pyridine-8,4′-piperidin]-1′-yl)cyclobutyl)acetonitrile, trifluoroacetate salt], the IC50 was not above 100 nM in experiment [1], not above 100 nM in experiment [2], 100 to 500 nM in experiment [3] and 100 to 500 nM in experiment [4].

On to `CN1C(=O)C2(CCN(C3(CC#N)CCC3)CC2)c2c1cnc1[nH]c(-c3cn(C)nc3C3CC3)c(-c3ccc4c(cnn4C)c3)c21` [Example 40, 2-(1-(2-(3-Cyclopropyl-1-methyl-1H-pyrazol-4-yl)-6-methyl-1-(1-methyl-1H-indazol-5-yl)-7-oxo-6,7-dihydro-3H-spiro[dipyrrolo[2,3-b:3′,2′-d]pyridine-8,4′-piperidin]-1′-yl)cyclobutyl)acetonitrile, trifluoroacetate salt], for which the IC50 in experiment [1] is not above 100 nM; in experiment [2], not above 100 nM; in experiment [3], more than 2500 nM; in experiment [4], more than 2500 nM.

In the case of `CC(=O)N1CCC(n2cc(-c3[nH]c4ncc5c(c4c3-c3ccc4c(cnn4C)c3)C3(CCN(C4(CC#N)CCC4)CC3)C(=O)N5C)cn2)CC1` [Example 41, 2-(1-(2-(1-(1-Acetylpiperidin-4-yl)-1H-pyrazol-4-yl)-6-methyl-1-(1-methyl-1H-indazol-5-yl)-7-oxo-6,7-dihydro-3H-spiro[dipyrrolo[2,3-b:3′,2′-d]pyridine-8-4′-piperidin]-1′-yl)cyclobutyl)acetonitrile, trifluoroacetate salt], the IC50 in experiment [1] was not above 100 nM; in experiment [2], not above 100 nM; in experiment [3], not above 100 nM; in experiment [4] it was 100 to 500 nM.

The values are drawn from patent US11958861B2, “Spirocyclic lactams as JAK2 V617F inhibitors” (Incyte Corporation, priority 2021, dated 2024).
